# Test results as given in PMC12202533, “Mechanistic Insights and Anti-cancer Activity of 2H-benzo[b][1,4]oxazin-3(4H)-one Linked 1,2,3-Triazoles in Human Cancer Cells” (Frontiers in Pharmacology, 2025).
# Assays:
# A549 cells = test: Cellular ROS level measurement (DCFH-DA); type: cell-based, human; settings: A549, 5, 10 or 20 μM, 24 h
# Description: Intracellular reactive oxygen species (ROS) generation will result in mitochondrial membrane damage and further induce cell apoptosis and cell death. To determine whether compounds 14b and 14c could induce ROS generation, we treated A549 cells with different doses of these two compounds and measured the intracellular ROS levels using the DCFH-DA peroxide-sensitive fluorescent dye. When DCFH-DA entered the cells, it would hydrolyze into DCFH by esterase and then convert to non-diffusible green fluorescent DCF by oxidation.
# FIGURE 6 Compounds 14b and 14c increased ROS levels. A549 cells were treated with different concentrations of 14b (A) and 14c (B) (5 μM, 10 μM, or 20 μM) for 24 h. ROS levels were stained using DCFH-DA, observed by confocal microscopy, and analyzed by ImageJ. Data are presented as mean ± SEM, *P < 0.05.
# A549 cells were seeded at a density of 5 × 10^3 cells per well in a 96-well plate and allowed to adhere overnight. Compounds were then added at concentrations of 0, 5, 10, and 20 μM for 24 h. After treatment, the medium was removed, and fresh medium without FBS but containing 10 μM DCFH-DA was added and incubated in the dark for 30 min. The cells were washed three times with FBS-free medium to remove excess probe. ROS levels were then measured and imaged using confocal microscopy.
# KM mice = test: Acute toxicity test in mice; type: in vivo; settings: 800 mg/kg oral gavage; for safety / toxicity in mice: 800 mg/kg
# Experimental: We further evaluated the safety of compound 14b through an acute toxicity study in KM mice. Male and female mice were divided into two groups: a control group and a 14 b-treated group. The treated group received 800 mg/kg of compound 14b via oral gavage, while the control group was given an equivalent volume of solvent. Body weight was monitored over a 15-day period. At the end of the study, blood samples were collected from the retro-orbital sinus to assess the biochemical markers GPT and GOT, and the major organs—heart, liver, spleen, lungs, and kidneys—were weighed and subjected to HE staining.
SMILES,ROS generation (A549 cells),"HE staining of the major organs (heart, liver, spleen, lungs, and kidneys) (KM mice)",organ indices of the major organs versus control group (KM mice),safety / toxicity in mice (KM mice),body weight versus control group (KM mice; 15-day period),GPT levels (KM mice; blood),safety / toxicity in mice (KM mice; listed as 14 b)
O=C1COc2ccc(NC(=O)c3cccc(-c4cn(-c5ccccc5F)nn4)c3)cc2N1 [Compound 14c],increased ROS generation,–,–,–,–,–,–
O=C1COc2ccc(NC(=O)c3cccc(-c4cn(-c5cccc(Br)c5)nn4)c3)cc2N1 [Compound 14b],increased ROS generation,no significant histopathological differences,no significant changes,low toxicity,no significant differences,slight but not statistically significant increase,favorable safety profile
